Legend:
[1] = system: nicotine self-administration; details: rodents; cited from earlier work
CPP produced by nicotine = details: rodents; cited from earlier work
nAChR [2] = assay type: in vivo; details: mouse, s.c., tested 5 min after injection; (confidence limits)
human α4β2-nAChRs = details: competitive antagonist of human α4β2-nAChRs; cited from earlier work
[3] = system: nicotine's ability to facilitate ICSS; details: rodents; cited from earlier work
[4] = system: discriminative stimulus effects of nicotine; details: rodents; cited from earlier work
nAChR [5] = assay type: in vivo; details: mouse, s.c., tested 5 min after injection
α3β4-nAChR = α3β4-nAChR (Rattus norvegicus, UniProt P04757+P12392); assay type: cell-based; details: 100 µM compound, rat α3β4 in Xenopus oocytes
α3β4-nAChR, sequence (P04757 26-499): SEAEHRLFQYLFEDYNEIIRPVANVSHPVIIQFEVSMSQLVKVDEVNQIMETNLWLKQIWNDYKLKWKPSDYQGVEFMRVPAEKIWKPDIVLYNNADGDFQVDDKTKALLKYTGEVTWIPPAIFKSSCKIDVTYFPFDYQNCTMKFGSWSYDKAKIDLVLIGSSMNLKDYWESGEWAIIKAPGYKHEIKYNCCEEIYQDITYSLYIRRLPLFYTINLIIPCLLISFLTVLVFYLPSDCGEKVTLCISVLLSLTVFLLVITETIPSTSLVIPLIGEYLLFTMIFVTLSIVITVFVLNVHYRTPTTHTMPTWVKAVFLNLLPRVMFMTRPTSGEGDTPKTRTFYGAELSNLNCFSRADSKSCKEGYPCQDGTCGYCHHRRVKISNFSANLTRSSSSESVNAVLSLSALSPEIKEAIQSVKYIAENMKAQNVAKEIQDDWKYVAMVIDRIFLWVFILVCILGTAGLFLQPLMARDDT
α3β4-nAChR, sequence (P12392 21-495): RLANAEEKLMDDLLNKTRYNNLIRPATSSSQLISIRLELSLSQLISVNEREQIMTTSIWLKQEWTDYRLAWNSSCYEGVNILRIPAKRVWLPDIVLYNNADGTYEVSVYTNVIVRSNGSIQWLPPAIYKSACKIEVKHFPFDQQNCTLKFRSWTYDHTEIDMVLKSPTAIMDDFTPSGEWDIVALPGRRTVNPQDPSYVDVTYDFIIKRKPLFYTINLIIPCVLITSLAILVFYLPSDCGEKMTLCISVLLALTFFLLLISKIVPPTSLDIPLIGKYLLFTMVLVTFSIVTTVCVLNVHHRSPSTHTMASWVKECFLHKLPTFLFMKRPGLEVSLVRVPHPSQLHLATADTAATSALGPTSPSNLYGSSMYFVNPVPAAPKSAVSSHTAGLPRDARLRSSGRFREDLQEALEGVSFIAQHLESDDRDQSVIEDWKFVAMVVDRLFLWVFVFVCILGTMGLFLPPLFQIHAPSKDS

nAChR [6] = assay: Antagonism of nicotine-induced antinociception, hot-plate test; assay type: in vivo; details: mouse
nAChR [7] = assay type: in vivo; details: mouse, s.c., 30 min
α4β2-nAChR [8] = target: T1, α4β2-nAChR (Rattus norvegicus, UniProt P09483+P12390); assay type: cell-based
Target sequence in this assay (P09483 31-630): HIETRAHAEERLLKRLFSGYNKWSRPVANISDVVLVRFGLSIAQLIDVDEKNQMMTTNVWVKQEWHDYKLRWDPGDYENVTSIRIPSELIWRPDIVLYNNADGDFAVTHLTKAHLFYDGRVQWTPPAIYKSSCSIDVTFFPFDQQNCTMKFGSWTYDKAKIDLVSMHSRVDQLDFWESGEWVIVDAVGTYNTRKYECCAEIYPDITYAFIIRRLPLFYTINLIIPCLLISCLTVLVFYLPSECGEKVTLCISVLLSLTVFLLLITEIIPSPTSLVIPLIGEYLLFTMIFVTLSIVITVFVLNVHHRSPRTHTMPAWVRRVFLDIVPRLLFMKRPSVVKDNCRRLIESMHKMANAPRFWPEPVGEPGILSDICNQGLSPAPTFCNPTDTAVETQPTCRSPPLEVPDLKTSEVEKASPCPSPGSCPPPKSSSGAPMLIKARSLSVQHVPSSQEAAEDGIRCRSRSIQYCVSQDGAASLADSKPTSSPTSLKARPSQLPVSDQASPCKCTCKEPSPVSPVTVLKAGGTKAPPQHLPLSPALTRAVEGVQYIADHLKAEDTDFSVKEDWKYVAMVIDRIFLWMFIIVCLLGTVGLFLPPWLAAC
Target sequence in this assay (P12390 25-500): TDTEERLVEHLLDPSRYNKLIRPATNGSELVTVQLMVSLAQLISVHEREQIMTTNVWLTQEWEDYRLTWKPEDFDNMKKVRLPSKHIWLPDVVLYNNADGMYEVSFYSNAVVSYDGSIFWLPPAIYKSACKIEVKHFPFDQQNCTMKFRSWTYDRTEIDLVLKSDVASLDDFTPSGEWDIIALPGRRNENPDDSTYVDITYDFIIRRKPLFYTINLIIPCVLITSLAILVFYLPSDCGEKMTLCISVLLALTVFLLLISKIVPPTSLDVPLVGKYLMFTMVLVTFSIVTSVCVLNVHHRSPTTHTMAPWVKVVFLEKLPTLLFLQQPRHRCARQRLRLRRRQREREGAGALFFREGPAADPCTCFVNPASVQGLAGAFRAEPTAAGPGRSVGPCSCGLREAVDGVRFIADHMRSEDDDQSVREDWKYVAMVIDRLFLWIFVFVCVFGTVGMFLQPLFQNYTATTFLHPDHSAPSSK

nAChR [9] = assay type: in vivo; details: mouse, s.c.
α4β2-nAChR [10] = target: T1, α4β2-nAChR; assay type: binding; details: Ki ratio
Target sequence in this assay (P12390 25-500): as above
Target sequence in this assay (P09483 31-630): as the sequence (P09483 31-630) above

α4β2 = details: read-out: Antagonist Activity IC50 α4β2; cited from earlier work

| Structure (SMILES) | Agonist Activity (% of max ACh at 100 µM of Compd) α3β4 (α3β4-nAChR) | ED50 Hypothermia (nAChR [7]) | ED50 Spontaneous Activity (nAChR [9]) | other results |
| --- | --- | --- | --- | --- |
| O=[N+]([O-])c1ccc(-c2cc(C3CC4CCC3N4)cnc2F)cc1 (stereo not drawn) [Compound 5a, 2'-fluoro-3'-(4-nitrophenyl)deschloroepibatidine] | low level of agonist activity | – | – | effect on i.v. nicotine self-administration [1]: dose-dependently blocked; effect on CPP produced by nicotine (CPP produced by nicotine): blocked; ED50 Tail-Flick (nAChR [2]): no functional activity; potency higher than that of dihydro-β-erythroidine (6) (human α4β2-nAChRs): 17 fold; effect on nicotine's ability to facilitate ICSS [3]: reduced; effect on discriminative stimulus effects of nicotine [4]: attenuated; ED50 Hot-Plate (nAChR [5]): no functional activity |
| Fc1ncc(C2CC3CCC2N3)cc1-c1ccc(C(F)(F)F)cc1 (stereo not drawn) [Compound 5b, 2'-Fluoro-3'-(4'-trifluoromethylphenyl)deschloroepibatidine] | lacked agonist activity | no activity | no activity | AD50 Hot-Plate (nAChR [6]): antagonists in the hot-plate test; selectivity for α4β2- over α3β4-nAChR (antagonist potency) (α4β2-nAChR [8]; electrophysiology, IC50 ratio): no selectivity; selectivity for α4β2- over α7-nAChR (antagonist potency) (α4β2-nAChR [8]; electrophysiology, IC50 ratio): no selectivity |
| N#Cc1ccc(-c2cc(C3CC4CCC3N4)cnc2F)cc1 (stereo not drawn) [Compound 5c, 2'-Fluoro-3'-(4-cyanophenyl)deschloroepibatidine] | low level of agonist activity | no activity | no activity | – |
| CS(=O)(=O)c1ccc(-c2cc(C3CC4CCC3N4)cnc2F)cc1 (stereo not drawn) [Compound 5d, 2'-Fluoro-3'-(4-methanesulfonylphenyl)deschloroepibatidine] | – | no activity | no activity | AD50 Hot-Plate (nAChR [6]): antagonists in the hot-plate test |
| NS(=O)(=O)c1ccc(-c2cc(C3CC4CCC3N4)cnc2F)cc1 (stereo not drawn) [Compound 5e, 2'-Fluoro-3'-(4-aminosulfonylphenyl)deschloroepibatidine] | – | no activity | no activity | – |
| O=S(=O)(c1ccc(-c2cc(C3CC4CCC3N4)cnc2F)cc1)C(F)(F)F (stereo not drawn) [Compound 5f, 2'-Fluoro-3'-(4-trifluoromethanesulfonylphenyl)deschloroepibatidine] | low level of agonist activity | – | only active in the spontaneous activity test | – |
| NC(=O)c1ccc(-c2cc(C3CC4CCC3N4)cnc2F)cc1 (stereo not drawn) [Compound 5g, 2'-Fluoro-3'-(4-carbamoylphenyl)deschloroepibatidine] | low level of agonist activity | only active in the hypothermia and spontaneous activity tests | only active in the hypothermia and spontaneous activity tests | Agonist Activity (% of max ACh at 100 µM of Compd) α4β2 (α4β2-nAChR [8]; 100 µM compound, rat α4β2 in Xenopus oocytes): low level of agonist activity; selectivity for α4β2 over α7 in radioligand binding assays (α4β2-nAChR [10]): > 15,000 fold |
| c1cnc2cc3c(cc2n1)[C@@H]1CNC[C@H]3C1 [varenicline] | – | – | – | IC50 (α4β2): 200 ± 30 nM |

Reference: paper PMC3431023 (Journal of medicinal chemistry, 2012)
